Where two headings read alike, the source gives them in different places.
Molecular target: Human KLKB1 (Homo sapiens (Human), UniProt P03952)
Assay: KLKB1 kallikrein activity inhibition assay (chromogenic substrate S-2302)
Format: biochemical
Description: The KLKB1 kallikrein activity reported herein (e.g., Tables B, C, and D) was obtained as follows. Human KLKB1 protein was obtained from Enzyme Research Labs. […] KLKB1 was assayed in buffer containing 0.05 M Tris (pH 7.4), 0.01 M NaCl and 0.2% w/v PEG-8000. The final concentration of enzyme used was 3 nM KLKB1. […] All assays were performed in 96-well microtiter plates at room temperature (RT). […] Inhibitor IC50 values were determined by adding test compound as ten point, three-fold serial dilutions in buffer solution, as known in the art. The plate was read at 10 minutes after substrate addition. The IC50 was calculated by plotting the percent (%) inhibition against compound concentration and fitting the data to a constrained four parameter sigmoidal curve, as known in the art.

[1] = 3 nM KLKB1, 250 μM S-2302, 10 min pre-incubation, RT

Human KLKB1, sequence (P03952 391-638 limits assumed): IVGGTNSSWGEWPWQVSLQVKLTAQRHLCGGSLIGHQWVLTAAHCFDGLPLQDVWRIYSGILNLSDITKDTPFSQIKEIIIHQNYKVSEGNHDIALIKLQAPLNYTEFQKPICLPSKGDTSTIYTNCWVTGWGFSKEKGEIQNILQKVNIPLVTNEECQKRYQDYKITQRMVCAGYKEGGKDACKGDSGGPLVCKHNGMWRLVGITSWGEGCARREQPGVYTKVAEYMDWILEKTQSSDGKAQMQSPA
Human KLKB1, sequence (P03952 20-390 partner limits assumed): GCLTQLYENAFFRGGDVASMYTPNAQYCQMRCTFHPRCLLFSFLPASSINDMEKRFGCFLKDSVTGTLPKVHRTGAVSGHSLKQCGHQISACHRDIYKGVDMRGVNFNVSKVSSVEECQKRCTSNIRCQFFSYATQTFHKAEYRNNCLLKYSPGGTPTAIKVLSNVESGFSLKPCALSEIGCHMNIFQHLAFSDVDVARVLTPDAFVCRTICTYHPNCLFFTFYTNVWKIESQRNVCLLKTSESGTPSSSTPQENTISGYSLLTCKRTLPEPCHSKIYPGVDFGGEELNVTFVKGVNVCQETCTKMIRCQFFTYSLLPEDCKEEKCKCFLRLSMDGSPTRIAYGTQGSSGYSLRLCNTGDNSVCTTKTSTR

Structure (SMILES) | IC50 (Table C) | also measured
Cc1cc(N(C)c2ccccc2F)nc(N[C@@H]2CCc3c(N)cccc3C2)n1 [Cmpd 419, 2-N-[(2R)-5-amino-1,2,3,4-tetrahydronaphthalen-2-yl]-4-N-(2-fluorophenyl)-4-N,6-dimethylpyrimidine-2,4-diamine] | – | IC50 [1]: > 100 µM
CC(C)CC(=O)n1nc(-c2ccncc2)nc1NCc1ccc(F)cc1 [Cmpd 316] | > 100 µM | –
COc1ccccc1C(=O)n1nc(C2CCOCC2)nc1NCc1ccc(Cl)s1 [Cmpd 385] | 0.1 to 1 µM | –
CC(C)(C)C(=O)n1nc(-c2ccccn2)cc1NCc1ccco1 [Cmpd 280, 1-5-[(furan-2-ylmethyl)amino]-3-(pyridin-2-yl)-1H-pyrazol-1-yl-2,2-dimethylpropan-1-one] | – | IC50 (Table B): > 100 µM
CC(C)(C)OC(=O)N1CCC(c2cc(NCc3ccc(Cl)s3)n(C(=O)C(C)(C)C)n2)CC1 [Cmpd 297] | – | IC50 (Table B): > 100 µM
CC(C)(C)C(=O)n1nc(-c2ccco2)cc1NCc1ccc(Cl)s1 [Cmpd 270] | – | IC50 (Table B): > 100 µM
O=C(c1ccoc1)n1nc(-c2ccncc2)nc1NCc1ccccc1 [Cmpd 402] | 10 to 100 µM | –
Cn1cc(Cl)c2cc(CNC(=O)[C@H]3CC(=O)N(Cc4ccc(Cl)cc4)C3)ccc21 [Cmpd 416, (3S)-N-[(3-chloro-1-methyl-1H-indol-5-yl)methyl]-1-[(4-chlorophenyl)methyl]-5-oxopyrrolidine-3-carboxamide] | – | IC50 [1]: 10 to 100 µM
Cc1cc(N(C)c2ccc(Cl)cc2)nc(N[C@H]2CCc3c(N)cccc3C2)n1 [Cmpd 425, 2-N-[(2S)-5-amino-1,2,3,4-tetrahydronaphthalen-2-yl]-4-N-(4-chlorophenyl)-4-N,6-dimethylpyrimidine-2,4-diamine] | – | IC50 [1]: > 100 µM
O=C(Oc1ccccc1)n1nc(-c2cccnc2)nc1NCc1ccc(F)cc1 [Cmpd 409] | > 100 µM | –
CC(C)(C)C(=O)n1nc(-c2ncccc2F)cc1NCc1ccc(Cl)s1 [Cmpd 269] | – | IC50 (Table B): > 100 µM
O=C(c1ccccc1)n1nc(-c2ccncc2)nc1NCc1ccccc1 [Cmpd 363] | 0.1 to 1 µM | –
O=C(c1ccoc1)n1nc(-c2cccs2)cc1NCc1ccc(Cl)s1 [Cmpd 289] | – | IC50 (Table B): > 100 µM
O=C(c1ccoc1)n1nc(-c2ccccn2)cc1NCc1ccc(Cl)s1 [Cmpd 288] | – | IC50 (Table B): 10 to 100 µM
CC(C)(C)OC(=O)n1nc(-c2cccnc2)nc1NCc1ccc(F)cc1 [Cmpd 413] | > 100 µM | –
CC(C)(C)OC(=O)N1CCC(c2cc(NCc3ccc(Cl)s3)n(C(=O)c3ccsc3)n2)CC1 [Cmpd 298] | – | IC50 (Table B): > 100 µM
CC(C)OC(=O)n1nc(-c2cccnc2)nc1NCc1ccc(F)cc1 [Cmpd 410] | > 100 µM | –
COc1ccccc1C(=O)n1nc(-c2ccccc2)nc1NCc1nccs1 [Cmpd 333] | > 100 µM | –
O=C(c1ccoc1)n1nc(-c2ccncc2)nc1NCc1ccc(F)cc1 [Cmpd 373] | > 100 µM | –
COC(=O)c1n[nH]c(NC(=O)c2ccc(C)cc2)n1 [Cmpd 408, methyl 5-[(4-methylbenzene)amido]-1H-1,2,4-triazole-3-carboxylate] | – | IC50: > 100 µM
O=C(c1ccoc1)n1nc(-c2ncccc2F)cc1NCc1ccc(Cl)s1 [Cmpd 291] | – | IC50 (Table B): > 100 µM
COc1ccccc1C(=O)n1nc(-c2ccccn2)cc1NCc1cccs1 [Cmpd 278] | – | IC50 (Table B): > 100 µM
COc1ccc(CNc2nc(-c3ccccn3)nn2C(=O)C(C)C)cc1 [Cmpd 320] | > 100 µM | –
O=C(CCc1ccccc1)n1nc(-c2ccncc2)nc1NCc1ccccc1 [Cmpd 354] | > 100 µM | –

Structure (SMILES) | IC50 (Table C) | also measured
CC(C)(C)C(=O)n1nc(-c2ccco2)nc1NCc1ccccc1 [Cmpd 342] | > 100 µM | –
O=C(NCc1ccc2[nH]cc(Cl)c2c1)[C@H]1CC(=O)N(Cc2ccccc2Cl)C1 [Cmpd 417, (3S)-N-[(3-chloro-1H-indol-5-yl)methyl]-1-[(2-chlorophenyl)methyl]-5-oxopyrrolidine-3-carboxamide] | – | IC50 [1]: 10 to 100 µM
CC(C)(C)C(=O)n1nc(-c2ccccn2)nc1NCc1ccc(F)cc1 [Cmpd 301] | 10 to 100 µM | –
O=C(Cc1ccccc1)n1nc(-c2ccco2)nc1NCc1ccccc1 [Cmpd 343] | > 100 µM | –
Cc1cc(N(C)c2cccc(F)c2)nc(N[C@@H]2CCc3c(N)cccc3C2)n1 [Cmpd 420, 2-N-[(2R)-5-amino-1,2,3,4-tetrahydronaphthalen-2-yl]-4-N-(3-fluorophenyl)-4-N,6-dimethylpyrimidine-2,4-diamine] | – | IC50 [1]: > 100 µM
COc1ccccc1C(=O)n1nc(-c2ccccn2)cc1NCc1ccco1 [Cmpd 283] | – | IC50 (Table B): > 100 µM
COc1ccc(CNc2nc(-c3ccccn3)nn2C(=O)c2ccsc2)cc1 [Cmpd 380] | 1 to 10 µM | –
Cc1cc(N(C)c2cccc(Cl)c2)nc(N[C@H]2CCc3c(N)cccc3C2)n1 [Cmpd 424, 2-N-[(2S)-5-amino-1,2,3,4-tetrahydronaphthalen-2-yl]-4-N-(3-chlorophenyl)-4-N,6-dimethylpyrimidine-2,4-diamine] | – | IC50 [1]: > 100 µM
O=C(NCc1ccc2[nH]cc(Cl)c2c1)[C@@H]1CC(=O)N(Cc2ccc(Cl)cc2)C1 [Cmpd 414, (3R)-N-[(3-chloro-1H-indol-5-yl)methyl]-1-[(4-chlorophenyl)methyl]-5-oxopyrrolidine-3-carboxamide] | – | IC50 [1]: > 100 µM
CCC(=O)n1nc(-c2ccncc2)nc1NCc1ccccc1 [Cmpd 356] | > 100 µM | –
O=C(c1ccsc1)n1nc(-c2ccncc2)nc1NCc1ccc(F)cc1 [Cmpd 11] | 1 to 10 µM | –
O=C(c1cccs1)n1nc(-c2ccncc2)nc1NCc1ccccc1 [Cmpd 406] | > 100 µM | –
CC(C)(CO)C(=O)n1nc(-c2ccccc2)c(F)c1NCc1ccc(Cl)s1 [Cmpd 275] | – | IC50 (Table B): > 100 µM
CCC(=O)n1nc(-c2ccncc2)nc1NCc1ccc(F)cc1 [Cmpd 318] | > 100 µM | –
COCC(=O)n1nc(-c2cccnc2)nc1NCc1ccc(F)cc1 [Cmpd 309] | > 100 µM | –
CC(C)(CO)C(=O)n1nc(C2CCOCC2)c(F)c1NCc1ccc(Cl)s1 [Cmpd 273] | – | IC50 (Table B): 10 to 100 µM
CCCC(=O)n1nc(-c2ccccn2)nc1NCc1ccc(OC)cc1 [Cmpd 324] | 10 to 100 µM | –
O=C(c1ccoc1)n1nc(C2CCCO2)nc1NCc1ccc(Cl)s1 (stereo not drawn) [Cmpd 392] | 0.1 to 1 µM | –
CCCn1nc(-c2ccccn2)nc1NCc1ccc(F)cc1 [Cmpd 374] | > 100 µM | –
COc1ccc(CNc2nc(-c3ccncc3)nn2C(=O)c2ccco2)cc1 [Cmpd 337] | > 100 µM | –
CCCC(=O)n1nc(-c2ccccn2)nc1NCc1ccccc1 [Cmpd 347] | 10 to 100 µM | –
O=C(c1ccco1)n1nc(-c2ccccn2)nc1NCc1ccccc1 [Cmpd 8] | 1 to 10 µM | –
O=C(c1cccs1)n1nc(-c2cccnc2)nc1NCc1ccc(F)cc1 [Cmpd 376] | 1 to 10 µM | –
COc1ccc(CNc2nc(-c3cccnc3)nn2C(=O)c2ccoc2)cc1 [Cmpd 339] | > 100 µM | –

More lines, main results first:

IC50 (Table C) | Structure (SMILES) | also measured
10 to 100 µM | COc1ccc(CNc2nc(-c3ccccn3)nn2C(=O)C(C)(C)C)cc1 [Cmpd 319] | –
1 to 10 µM | COc1ccc(CNc2nc(-c3ccccn3)nn2C(=O)c2ccco2)cc1 [Cmpd 336] | –
10 to 100 µM | COc1ccccc1C(=O)n1nc(-c2ccccc2)nc1NCc1ccsc1 [Cmpd 335] | –
1 to 10 µM | COc1ccccc1C(=O)n1nc(-c2cccs2)nc1NCc1ccccc1 [Cmpd 398] | –
10 to 100 µM | CCC(=O)n1nc(-c2cccnc2)nc1NCc1cccs1 [Cmpd 340] | –
10 to 100 µM | CC(C)CC(=O)n1nc(-c2ccccn2)nc1NCc1ccc(F)cc1 [Cmpd 304] | –
1 to 10 µM | O=C(c1ccco1)n1nc(-c2ccccn2)nc1NCc1ccc(F)cc1 [Cmpd 369] | –
> 100 µM | O=C(c1cccs1)n1nc(-c2ccncc2)nc1NCc1ccc(F)cc1 [Cmpd 378] | –
> 100 µM | COc1ccccc1C(=O)n1nc(-c2ccccc2)nc1NCc1ccc(Cl)o1 [Cmpd 383] | –
10 to 100 µM | CCCC(=O)n1nc(-c2cccnc2)nc1NCc1ccc(OC)cc1 [Cmpd 330] | –
10 to 100 µM | COc1ccc(CNc2nc(-c3ccccn3)nn2C(=O)Cc2ccccc2)cc1 [Cmpd 321] | –
> 100 µM | COc1ccc(CNc2nc(-c3cccnc3)nn2C(=O)c2cccs2)cc1 [Cmpd 381] | –
1 to 10 µM | O=C(c1ccco1)n1nc(-c2cccnc2)nc1NCc1ccc(F)cc1 [Cmpd 370] | –
10 to 100 µM | CC(C)C(=O)n1nc(-c2ccncc2)nc1NCc1ccc(F)cc1 [Cmpd 315] | –
> 100 µM | Fc1ccc(CNc2nc(-c3ccccn3)nn2-c2nc3ccccc3s2)cc1 [Cmpd 299] | –
1 to 10 µM | CC(C)(C)C(=O)n1nc(C2CCCO2)nc1NCc1ccc(Cl)s1 (stereo not drawn) [Cmpd 331] | –
1 to 10 µM | O=C(c1cccs1)n1nc(-c2ccccn2)nc1NCc1ccc(F)cc1 [Cmpd 10] | –
< 0.1 µM | COc1ccccc1C(=O)n1nc(C2CN(S(=O)(=O)N3CCCC3)C2)nc1NCc1ccc(Cl)s1 [Cmpd 388] | –
1 to 10 µM | O=C(Cc1ccccc1)n1nc(-c2cccnc2)nc1NCc1ccc(F)cc1 [Cmpd 311] | –
1 to 10 µM | COc1ccccc1C(=O)n1nc(-c2ccccn2)nc1NCc1ccccc1 [Cmpd 397] | –
10 to 100 µM | CCC(=O)n1nc(-c2ccccn2)nc1NCc1ccc(F)cc1 [Cmpd 307] | –
10 to 100 µM | COc1ccc(CNc2nc(-c3cccnc3)nn2C(=O)Cc2ccccc2)cc1 [Cmpd 327] | –
10 to 100 µM | CC(C)C(=O)n1nc(-c2ccccn2)nc1NCc1ccccc1 [Cmpd 345] | –
0.1 to 1 µM | O=C(c1ccccc1Cl)n1nc(-c2ccccn2)nc1NCc1ccccc1 [Cmpd 395] | –
1 to 10 µM | COc1ccc(CNc2nc(-c3cccnc3)nn2C(=O)c2ccsc2)cc1 [Cmpd 382] | –
10 to 100 µM | COc1ccc(CNc2nc(-c3ccccn3)nn2C(=O)c2ccoc2)cc1 [Cmpd 338] | –
10 to 100 µM | CC(C)(C)C(=O)n1nc(-c2ccco2)nc1NCc1ccc(F)cc1 [Cmpd 300] | –
10 to 100 µM | CC(C)CC(=O)n1nc(-c2ccccn2)nc1NCc1ccccc1 [Cmpd 346] | –
10 to 100 µM | CCC(=O)n1nc(-c2cccnc2)nc1NCc1ccccc1 [Cmpd 349] | –
0.1 to 1 µM | O=C(c1ccccc1Cl)n1nc(-c2cccs2)nc1NCc1ccccc1 [Cmpd 396] | –

Source: patent publication US9687479B2, “Multisubstituted aromatic compounds as serine protease inhibitors” (VERSEON CORPORATION, priority 2013, dated 2017)
